# Test results taken from ChEMBL document CHEMBL1250507, “Novel indolylmaleimide acts as GSK-3beta inhibitor in human neural progenitor cells” (Bioorg Med Chem, 2010).
# pIC50: −log10 of the molar value. Active and inactive are the calls of the source. The calls are words filed in the database; no cut-off is given here.
# Tests used:
# [1] = target: T1, Glycogen synthase kinase-3 beta (Homo sapiens, UniProt P49841); settings: ReNcell VM, at 3 µM
# Target sequence in this assay (P49841 whole entry, looked up): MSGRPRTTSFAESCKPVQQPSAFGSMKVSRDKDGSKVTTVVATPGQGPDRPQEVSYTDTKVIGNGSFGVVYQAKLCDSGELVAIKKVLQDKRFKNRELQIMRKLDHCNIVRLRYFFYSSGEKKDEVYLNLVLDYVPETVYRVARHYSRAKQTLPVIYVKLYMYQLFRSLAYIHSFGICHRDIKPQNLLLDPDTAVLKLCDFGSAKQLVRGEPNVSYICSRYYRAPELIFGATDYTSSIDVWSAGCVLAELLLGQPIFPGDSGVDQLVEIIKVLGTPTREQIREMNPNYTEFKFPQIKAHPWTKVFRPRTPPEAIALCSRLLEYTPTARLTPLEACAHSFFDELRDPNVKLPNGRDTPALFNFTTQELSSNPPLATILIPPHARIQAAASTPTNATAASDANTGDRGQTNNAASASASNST
# [2] = target: T1, Glycogen synthase kinase-3 beta; assay: Inhibition of GSK-3-beta-mediated Wnt signaling in human ReNcell VM cells assessed as increase in accumulation of beta-catenin at 1 uM after 2 hrs by ELISA relative to control
# Target sequence in this assay (P49841 whole entry, looked up): as above
# [3] = target: T1, Glycogen synthase kinase-3 beta; settings: ReNcell VM, 3 uM
# Target sequence in this assay (P49841 whole entry, looked up): as above
# [4] = target: T1, Glycogen synthase kinase-3 beta; settings: ReNcell VM, 3 uM; remark: listed apart in the source
# Target sequence in this assay (P49841 whole entry, looked up): as above
# Description: Inhibition of GSK3-beta in human ReNcell VM cells assessed as residual activity at 3 uM after 2 hrs by immunoprecipitation analysis relative to control
# ReNcell VM [5] = assay: Antiproliferative activity against human ReNcell VM cells assessed as reduction of cell proliferation at 3 uM after 72 hrs; format: functional, cell-based
# [6] = Induction of neuronal differentiation in human ReNcell VM cells assessed as beta3-tubulin positive cells after 3 days by FACS analysis relative to control; format: functional
# [7] = target: T1, Glycogen synthase kinase-3 beta; assay: Inhibition of GSK3-beta after 30 mins by luminescence assay
# Target sequence in this assay (P49841 whole entry): as the sequence (P49841 whole entry, looked up) above
# [8] = Antiproliferative activity against human ReNcell VM cells assessed as growth doubling time at 3 uM measured every 24 hrs; format: functional
# [9] = target: T1, Glycogen synthase kinase-3 beta; settings: ReNcell VM, 3 uM; remark: listed apart in the source
# Target sequence in this assay (P49841 whole entry, looked up): as above
# ReNcell VM [10] = assay: Cytotoxicity against human ReNcell VM cells assessed as cell viability at 3 uM after 72 hrs; format: functional, cell-based
Structure (SMILES),inhibition [1],further results
Cc1[nH]c2ccccc2c1C1=C(C(=O)N2CCN(c3ccccc3)CC2)C(=O)N(C)C1=O,inactive,
CCCCNC1=C(c2c(C)[nH]c3ccccc23)C(=O)N(C)C1=O,inactive,
O=C1Cc2c([nH]c3ccc(Br)cc23)-c2ccccc2N1,,inhibition [2]: 30%
Cc1[nH]c2ccccc2c1C1=C(N2CCN(c3ccccc3)CC2)C(=O)N(C)C1=O,inactive,
Cc1[nH]c2ccccc2c1C1=C(NCCc2c[nH]c3ccccc23)C(=O)N(C)C1=O,inactive,
CCCCNC(=O)C1=C(c2c(C)[nH]c3ccccc23)C(=O)N(C)C1=O,inactive,
Cc1[nH]c2ccccc2c1C1=C(C(=O)N2CCCCC2)C(=O)N(C)C1=O,inactive,
Cc1[nH]c2ccccc2c1C1=C(NCCc2ccccc2)C(=O)N(C)C1=O,inactive,
Cc1[nH]c2ccccc2c1C1=C(NCCc2ccc(F)c(F)c2)C(=O)N(C)C1=O,inactive,
COc1ccc2[nH]cc(C3=C(NCCc4ccc(F)cc4)C(=O)N(C)C3=O)c2c1,inactive,
COc1ccc(CCNC2=C(c3c(C)[nH]c4ccccc34)C(=O)N(C)C2=O)cc1,inactive,
Cc1[nH]c2ccccc2c1C1=C(NCCc2ccc(F)cc2)C(=O)N(C)C1=O,27%,inhibition [3]: Active; residual activity [4]: 27%; Activity (ReNcell VM [5]): Active; Activity [6]: 3.7%; pIC50 [7]: 7.28; Time [8]: 26.5 h
Cc1[nH]c2ccccc2c1C1=C(NCCc2ccc(Cl)cc2)C(=O)N(C)C1=O,inactive,
Cc1[nH]c2ccccc2c1C1=C(C(=O)N2CCOCC2)C(=O)N(C)C1=O,inactive,
CCOC(=O)C1=C(c2c(C)[nH]c3ccccc23)C(=O)N(C)C1=O,inactive,
Cc1[nH]c2ccccc2c1C1=C(N2CCOCC2)C(=O)N(C)C1=O,inactive,
CCCCOC(=O)C1=C(c2c(C)[nH]c3ccccc23)C(=O)N(C)C1=O,inactive,
Cn1cc(C2=C(c3ccc(Cl)cc3Cl)C(=O)NC2=O)c2ccccc21 [SB-216763],50%,inhibition [9]: 55%; inhibition [3]: inactive; Activity (ReNcell VM [10]): Not toxic; residual activity [4]: 22%; Activity (ReNcell VM [5]): Active; Activity [6]: 3.2%; Time [8]: 24.4 h
CN1C(=O)C(NCCc2ccc(F)cc2)=C(c2c[nH]c3ccc(F)cc23)C1=O,inactive,
CN1C(=O)C(NCCc2ccc(F)cc2)=C(c2c[nH]c3ccccc23)C1=O,inactive,
Cc1[nH]c2ccccc2c1C1=C(NCCc2ccc(O)cc2)C(=O)N(C)C1=O,inactive,
CCCCNC1=C(c2c(C)[nH]c3ccccc23)C(=O)N(CCCC)C1=O,inactive,
CCCCNC(=O)C1=C(c2c(C)[nH]c3ccccc23)C(=O)N(CCCC)C1=O,inactive,
Cc1[nH]c2ccccc2c1C1=C(N2CCCCC2)C(=O)N(C)C1=O,inactive,
